Test results: PMC11859184, “Synthesis and Evaluation of ^68Ga- and ^177Lu-Labeled [diF-Pro^14]Bombesin(6−14) Analogs for Detection and Radioligand Therapy of Gastrin-Releasing Peptide Receptor-Expressing Cancer” (Pharmaceuticals, 2025)
Like-named read-outs stand apart in the source and are kept apart here.

Assay: Ex vivo biodistribution of 177Lu-labeled ligands in PC-3 tumor-bearing mice
Conditions: mouse, intravenous; for tissue uptake at 1 h: 1 h pi; for tissue uptake at 4 h: 4 h pi; for tissue uptake at 24 h: 24 h pi; for tissue uptake at 72 h: 72 h pi
Description: SPECT/CT imaging was conducted using an MI Labs (Houten, The Netherlands) U-SPECT-II/CT scanner with a custom-made ultra-high sensitivity big mouse collimator (2 mm pinhole size) following published procedure. The experiments were obtained in accordance with the same protocol established in the PET/CT imaging and ex vivo biodistributions section. The mice were used for SPECT/CT imaging and ex vivo biodistributions studies once the tumors reached a diameter of 5–8 mm. PC-3 tumor-bearing mice were sedated (2.5% isoflurane in O2) and injected with 31.4–36.9 MBq of the ^177Lu-labeled ligand through a lateral caudal tail vein. The mouse was imaged at 1, 4, 24, 72, and 120 h pi. At each time point, a 5 min CT scan was performed with 615 μA and 60 kV parameters for localization and attenuation, followed by two 30 min static SPECT scans in list mode with an energy window centered around 208 keV. The U-SPECT II software was used to reconstruct data, and the images were decay corrected to the time of injection with PMOD v 3.402 (PMOD Technologies GmbH, Fallanden, Switzerland).
For ex vivo biodistribution studies, the mice were injected with ~3–5 MBq of the ^177Lu-labeled ligand (n = 5). At 1, 4, 24, 72, and 120 h post-injection, the mice were anesthetized with 2% isoflurane, euthanized by CO2 inhalation, and the tissues/organs of interest were […] for radioactivity counting. The blocking study was performed at 1 h pi via co-injection of the ^177Lu-labeled ligand with 100 μg of [D-Phe^6,Leu-NHEt^13,des-Met^14]Bombesin(6–14).

[1] = kidneys, n = 5, read-out: Kidneys uptake
[2] = large intestine, n = 5, read-out: Large intestine uptake
[3] = liver, n = 5, read-out: Liver uptake
[4] = lungs, n = 5, read-out: Lungs uptake
[5] = muscle, n = 5, read-out: Muscle uptake
[6] = pancreas, n = 5, read-out: Pancreas uptake
[7] = small intestine, n = 5, read-out: Small intestine uptake
[8] = spleen, n = 5, read-out: Spleen uptake
[9] = stomach, n = 5, read-out: Stomach uptake
[10] = testes, n = 5, read-out: Testes uptake

SMILES: CC(C)C[C@@H](CN1CC(F)(F)C[C@H]1C(N)=O)NC(=O)[C@H](Cc1c[nH]cn1)NC(=O)CN(C)C(=O)[C@@H](NC(=O)[C@H](C)NC(=O)[C@H](Cc1c[nH]c2ccccc12)NC(=O)[C@H](CCC(N)=O)NC(=O)[C@@H](Cc1ccccc1)NC(=O)CN1CCC(NC(=O)CN2CCN(CC(=O)O)CCN(CC(=O)O)CCN(CC(=O)O)CC2)CC1)C(C)C [[^177Lu]Lu-LW02080, metal not drawn]
- tissue uptake at 120 h (heart, 120 h pi, n = 5, read-out: Heart uptake): 0.01 ± 0.01 %ID/g
- tissue uptake at 1 h (kidneys, 100 ug, blocked (100 µg GRPR antagonist co-injected), read-out: Kidneys uptake): 4.17 ± 0.95 %ID/g
- tissue uptake at 1 h [1]: 2.65 ± 0.48 %ID/g
- tissue uptake at 4 h [1]: 1.88 ± 0.35 %ID/g
- tissue uptake at 24 h [1]: 0.89 ± 0.28 %ID/g
- tissue uptake at 72 h [1]: 0.26 ± 0.08 %ID/g
- tissue uptake at 120 h (kidneys, 120 h pi, n = 5, read-out: Kidneys uptake): 0.12 ± 0.03 %ID/g
- tissue uptake at 1 h (large intestine, 100 ug, blocked (100 µg GRPR antagonist co-injected), read-out: Large intestine uptake): 0.21 ± 0.09 %ID/g
- tissue uptake at 1 h [2]: 0.17 ± 0.09 %ID/g
- tissue uptake at 4 h [2]: 0.34 ± 0.04 %ID/g
- tissue uptake at 24 h [2]: 0.15 ± 0.06 %ID/g
- tissue uptake at 72 h [2]: 0.06 ± 0.02 %ID/g
- tissue uptake at 120 h (large intestine, 120 h pi, n = 5, read-out: Large intestine uptake): 0.02 ± 0.01 %ID/g
- tissue uptake at 1 h (liver, 100 ug, blocked (100 µg GRPR antagonist co-injected), read-out: Liver uptake): 0.33 ± 0.08 %ID/g
- tissue uptake at 1 h [3]: 0.27 ± 0.1 %ID/g
- tissue uptake at 4 h [3]: 0.2 ± 0.08 %ID/g
- tissue uptake at 24 h [3]: 0.09 ± 0.01 %ID/g
- tissue uptake at 72 h [3]: 0.04 ± 0.01 %ID/g
- tissue uptake at 120 h (liver, 120 h pi, n = 5, read-out: Liver uptake): 0.03 ± 0.01 %ID/g
- tissue uptake at 1 h (lungs, 100 ug, blocked (100 µg GRPR antagonist co-injected), read-out: Lungs uptake): 0.45 ± 0.22 %ID/g
- tissue uptake at 1 h [4]: 0.43 ± 0.04 %ID/g
- tissue uptake at 4 h [4]: 0.13 ± 0.08 %ID/g
- tissue uptake at 24 h [4]: 0.05 ± 0.03 %ID/g
- tissue uptake at 72 h [4]: 0.02 %ID/g
- tissue uptake at 120 h (lungs, 120 h pi, n = 5, read-out: Lungs uptake): 0.05 ± 0.03 %ID/g
- tissue uptake at 1 h (muscle, 100 ug, blocked (100 µg GRPR antagonist co-injected), read-out: Muscle uptake): 0.15 ± 0.04 %ID/g
- tissue uptake at 1 h [5]: 0.06 ± 0.01 %ID/g
- tissue uptake at 4 h [5]: 0.01 %ID/g
- tissue uptake at 24 h [5]: 0.01 %ID/g
- tissue uptake at 1 h (pancreas, 100 ug, blocked (100 µg GRPR antagonist co-injected), read-out: Pancreas uptake): 0.34 ± 0.09 %ID/g
- tissue uptake at 1 h [6]: 0.39 ± 0.08 %ID/g
- tissue uptake at 4 h [6]: 0.06 ± 0.02 %ID/g
- tissue uptake at 24 h [6]: 0.04 ± 0.01 %ID/g
- tissue uptake at 72 h [6]: 0.01 %ID/g
- tissue uptake at 120 h (pancreas, 120 h pi, n = 5, read-out: Pancreas uptake): 0.01 %ID/g
- tissue uptake at 120 h (pancreas, all time points (1, 4, 24, 72, 120 h pi), read-out: pancreas uptake): < 0.5 %ID/g
- tissue uptake at 1 h (small intestine, 100 ug, blocked (100 µg GRPR antagonist co-injected), read-out: Small intestine uptake): 0.48 ± 0.18 %ID/g
- tissue uptake at 1 h [7]: 0.28 ± 0.03 %ID/g
- tissue uptake at 4 h [7]: 0.07 ± 0.03 %ID/g
- tissue uptake at 24 h [7]: 0.03 ± 0.01 %ID/g
- tissue uptake at 72 h [7]: 0.01 %ID/g
- tissue uptake at 120 h (small intestine, 120 h pi, n = 5, read-out: Small intestine uptake): 0.01 %ID/g
- tissue uptake at 1 h (spleen, 100 ug, blocked (100 µg GRPR antagonist co-injected), read-out: Spleen uptake): 0.16 ± 0.05 %ID/g
- tissue uptake at 1 h [8]: 0.14 ± 0.04 %ID/g
- tissue uptake at 4 h [8]: 0.07 ± 0.01 %ID/g
- tissue uptake at 24 h [8]: 0.07 ± 0.02 %ID/g
- tissue uptake at 72 h [8]: 0.04 ± 0.01 %ID/g
- tissue uptake at 120 h (spleen, 120 h pi, n = 5, read-out: Spleen uptake): 0.03 %ID/g
- tissue uptake at 1 h (stomach, 100 ug, blocked (100 µg GRPR antagonist co-injected), read-out: Stomach uptake): 0.26 ± 0.14 %ID/g
- tissue uptake at 1 h [9]: 0.08 ± 0.04 %ID/g
- tissue uptake at 4 h [9]: 0.02 %ID/g
- tissue uptake at 24 h [9]: 0.07 ± 0.04 %ID/g
- tissue uptake at 72 h [9]: 0.02 ± 0.01 %ID/g
- tissue uptake at 120 h (stomach, 120 h pi, n = 5, read-out: Stomach uptake): 0.01 ± 0.01 %ID/g
- tissue uptake at 1 h (testes, 100 ug, blocked (100 µg GRPR antagonist co-injected), read-out: Testes uptake): 0.22 ± 0.09 %ID/g
- tissue uptake at 1 h [10]: 0.2 ± 0.04 %ID/g
- tissue uptake at 4 h [10]: 0.03 ± 0.01 %ID/g
- tissue uptake at 24 h [10]: 0.03 ± 0.01 %ID/g
- tissue uptake at 72 h [10]: 0.01 %ID/g
- tissue uptake at 120 h (testes, 120 h pi, n = 5, read-out: Testes uptake): 0.01 %ID/g
